Read-outs that look alike come from different tables or passages of the source.
How the values were obtained:
[1] = target: CDK-2/cyclin A (Homo sapiens, UniProt P24941); assay: CDK inhibition assay, CDK-2/cyclin A against Histone HI, 33P-ATP; type: biochemical; conditions: at 500 nM
Method: Compounds were evaluated for their ability to inhibit CDK2 and CDK9 as given below.
CDK-2/cyclin A (5-20 mU diluted in 50 mM Hepes pH 7.5, 1 mM DTT, 0.02% Brij35, 100 mM NaCl) was assayed against Histone HI in a final volume of 25.5 µl containing 50 mM Hepes pH7.5, 1 mM DTT, 0.02% Brij35, 100 mM NaCl, Histone HI (1 mg/ml), 10 mM magnesium acetate and 0.02 mM [33P-g-ATP](500-1000 cpm/pmole) and incubated for 30 min at room temperature. Assays were stopped by addition of 5 µl of 0.5 M (3%) orthophosphoric acid and then harvested onto P81 Unifilter plates with a wash buffer of 50 mM orthophosphoric acid.

[2] = target: CDK-9/Cyclin T1 (Homo sapiens, UniProt P50750); assay: CDK inhibition assay, CDK-9/Cyclin T1 against substrate peptide, 33P-ATP; type: biochemical; conditions: at 500 nM
Method: (50-1000 cpm/pmole) and incubated for 30 min at room temperature. Assays were stopped by addition of 5 µl of 0.5 M (3%) orthophosphoric acid and then harvested onto P81 Unifilter plates with a wash buffer of 50 mM orthophosphoric acid.

[3] = Table-7, read-out: In vitro CDK2 % of inhibition
[4] = read-out: inhibition against CDK2
[5] = Table-7, read-out: In vitro CDK9 % of inhibition
[6] = read-out: inhibition against CDK9
[7] = Table-6, read-out: In vitro CDK2 % of inhibition
[8] = Table-6, read-out: In vitro CDK9 % of inhibition

Chain of CDK-9/Cyclin T1 (P50750 whole entry): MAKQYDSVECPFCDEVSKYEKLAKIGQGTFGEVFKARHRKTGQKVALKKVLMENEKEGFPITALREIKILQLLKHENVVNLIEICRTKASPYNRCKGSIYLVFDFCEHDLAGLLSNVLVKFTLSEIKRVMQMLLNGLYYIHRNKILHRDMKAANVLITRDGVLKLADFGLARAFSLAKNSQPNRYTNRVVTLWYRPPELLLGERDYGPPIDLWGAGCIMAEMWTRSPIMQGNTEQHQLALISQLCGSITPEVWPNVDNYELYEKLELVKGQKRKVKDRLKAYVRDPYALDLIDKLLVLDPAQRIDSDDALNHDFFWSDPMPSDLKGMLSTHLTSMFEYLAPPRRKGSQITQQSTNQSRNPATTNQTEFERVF
Chain of CDK-9/Cyclin T1 (O60563 whole entry partner): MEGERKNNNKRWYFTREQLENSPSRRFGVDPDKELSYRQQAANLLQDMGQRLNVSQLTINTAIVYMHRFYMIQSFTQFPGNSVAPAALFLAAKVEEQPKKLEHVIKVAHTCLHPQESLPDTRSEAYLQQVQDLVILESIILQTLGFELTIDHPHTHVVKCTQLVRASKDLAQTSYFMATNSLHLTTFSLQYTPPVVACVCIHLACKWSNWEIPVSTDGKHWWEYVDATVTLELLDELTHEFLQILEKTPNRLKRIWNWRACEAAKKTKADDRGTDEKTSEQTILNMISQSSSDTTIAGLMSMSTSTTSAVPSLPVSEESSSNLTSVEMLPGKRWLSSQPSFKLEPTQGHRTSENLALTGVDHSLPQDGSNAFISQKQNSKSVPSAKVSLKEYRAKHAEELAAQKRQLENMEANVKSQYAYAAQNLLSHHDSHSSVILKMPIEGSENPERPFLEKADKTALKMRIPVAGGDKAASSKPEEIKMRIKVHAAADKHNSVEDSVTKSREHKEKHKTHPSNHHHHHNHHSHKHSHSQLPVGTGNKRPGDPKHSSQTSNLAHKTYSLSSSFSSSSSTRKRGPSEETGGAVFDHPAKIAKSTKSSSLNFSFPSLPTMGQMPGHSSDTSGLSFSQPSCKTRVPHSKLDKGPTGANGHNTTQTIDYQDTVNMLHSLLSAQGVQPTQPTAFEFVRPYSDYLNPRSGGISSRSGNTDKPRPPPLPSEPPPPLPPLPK

Row | SMILES | inhibition at 0.5 µM [1, 3] [%] | inhibition at 0.5 µM [1, 4] [%] | inhibition at 0.5 µM [2, 5] [%] | inhibition at 0.5 µM [2, 6] [%] | inhibition at 0.5 µM [1, 7] [%] | inhibition at 0.5 µM [2, 8] [%]
1 | c1ccc2[nH]c(-c3cnc4[nH]cc(-c5ccnc(NC6CCCC6)n5)c4c3)cc2c1 [1A39, 4-(5-(1H-indol-2-yl)-1H-pyrrolo[2,3-b]pyridin-3-yl)-N-cyclopentylpyrimidin-2-amine] |  | > 50 |  | > 50 | > 50 | > 50
2 | Cc1cccc(-c2cnc3[nH]cc(-c4ccnc(NC5CC5)n4)c3c2)c1 [1A7, N-cyclopropyl-4-(5-(m-tolyl)-1H-pyrrolo[2,3-b]pyridin-3-yl)pyrimidin-2-amine] |  | > 70 |  | > 70 | > 70 | > 70
3 | CCc1ccccc1-c1cnc2[nH]cc(-c3ccnc(NC4CC4)n3)c2c1 [1A10, N-cyclopropyl-4-(5-(2-ethylphenyl)-1H-pyrrolo[2,3-b]pyridin-3-yl)pyrimidin-2-amine] |  | > 70 |  | > 70 | > 70 | > 70
4 | Cc1ccc(-c2cnc3[nH]cc(-c4ccnc(NC5CC5)n4)c3c2)cc1 [1A6, N-cyclopropyl-4-(5-(p-tolyl)-1H-pyrrolo[2,3-b]pyridin-3-yl)pyrimidin-2-amine] |  | > 70 |  | > 70 | > 70 | > 70
5 | FC(F)(F)c1cccc(-c2cnc3[nH]cc(-c4ccnc(NC5CCCCCC5)n4)c3c2)c1 [1A44, N-cycloheptyl-4-(5-(3-(trifluoromethyl)phenyl)-1H-pyrrolo[2,3-b]pyridin-3-yl)pyrimidin-2-amine] |  |  |  |  | > 70 | > 50
6 | Clc1ccc(-c2cnc3[nH]cc(-c4ccnc(NC5CCCCCC5)n4)c3c2)cc1 [1A52, 4-(5-(4-chlorophenyl)-1H-pyrrolo[2,3-b]pyridin-3-yl)-N-cycloheptylpyrimidin-2-amine] | > 70 | > 70 | > 70 | > 70 |  | 
7 | c1ccc2sc(-c3cnc4[nH]cc(-c5ccnc(NC6CCCC6)n5)c4c3)cc2c1 [1A38, 4-(5-(benzo[b]thiophen-2-yl)-1H-pyrrolo[2,3-b]pyridin-3-yl)-N-cyclopentylpyrimidin-2-amine] |  | > 50 |  | > 50 | > 50 | > 50
8 | Cc1ccc(-c2cnc3[nH]cc(-c4ccnc(NC5CCCC5)n4)c3c2)cc1 [1A26, N-cyclopentyl-4-(5-(p-tolyl)-1H-pyrrolo[2,3-b]pyridin-3-yl)pyrimidin-2-amine] |  | > 50 |  | > 50 | > 50 | > 50
9 | CSc1ccc(-c2cnc3[nH]cc(-c4ccnc(NC5CCCC5)n4)c3c2)cc1 [1A28, N-cyclopentyl-4-(5-(4-(methylthio)phenyl)-1H-pyrrolo[2,3-b]pyridin-3-yl)pyrimidin-2-amine] |  | > 50 |  | > 50 | > 50 | > 50
10 | CSc1ccc(-c2cnc3[nH]cc(-c4ccnc(NCCc5ccccc5)n4)c3c2)cc1 [1B8, 4-(5-(4-(methylthio)phenyl)-1H-pyrrolo[2,3-b]pyridin-3-yl)-N-phenethylpyrimidin-2-amine] | > 50 | > 50 | > 50 | > 50 |  | 
11 | CSc1ccccc1-c1cnc2[nH]cc(-c3ccnc(NC4CCCC4)n3)c2c1 [1A29, N-cyclopentyl-4-(5-(2-(methylthio)phenyl)-1H-pyrrolo[2,3-b]pyridin-3-yl)pyrimidin-2-amine] |  | > 70 |  | > 70 | > 70 | > 70
12 | c1ccc2c(-c3cnc4[nH]cc(-c5ccnc(NC6CCCCCC6)n5)c4c3)cccc2c1 [1A54, N-cycloheptyl-4-(5-(naphthalen-1-yl)-1H-pyrrolo[2,3-b]pyridin-3-yl)pyrimidin-2-amine] | > 70 | > 70 | > 70 | > 70 |  | 
13 | c1cncc(-c2cnc3[nH]cc(-c4ccnc(NC5CCCC5)n4)c3c2)c1 [1A35, N-cyclopentyl-4-(5-(pyridin-3-yl)-1H-pyrrolo[2,3-b]pyridin-3-yl)pyrimidin-2-amine] |  | > 50 |  | > 50 | > 50 | > 50
14 | O=Cc1ccc(-c2cnc3[nH]cc(-c4ccnc(NC5CCCC5)n4)c3c2)cc1 [1A33, 4-(3-(2-(cyclopentylamino)pyrimidin-4-yl)-1H-pyrrolo[2,3-b]pyridin-5-yl)benzaldehyde] |  |  |  |  | > 70 | > 50

Next, values leading:

Row | inhibition at 0.5 µM [1, 3] [%] | inhibition at 0.5 µM [1, 4] [%] | inhibition at 0.5 µM [2, 5] [%] | inhibition at 0.5 µM [2, 6] [%] | inhibition at 0.5 µM [1, 7] [%] | inhibition at 0.5 µM [2, 8] [%] | SMILES
15 | > 50 | > 50 | > 50 | > 50 |  |  | COc1ccc2[nH]c(-c3cnc4[nH]cc(-c5ccnc(NCCc6ccccc6)n5)c4c3)cc2c1 [1B17, 4-(5-(5-methoxy-1H-indol-2-yl)-1H-pyrrolo[2,3-b]pyridin-3-yl)-N-phenethylpyrimidin-2-amine]
16 | > 50 | > 50 | > 50 | > 50 |  |  | FC(F)(F)Oc1ccc(-c2cnc3[nH]cc(-c4ccnc(NCCc5ccccc5)n4)c3c2)cc1 [1B3, N-phenethyl-4-(5-(4-(trifluoromethoxy)phenyl)-1H-pyrrolo[2,3-b]pyridin-3-yl)pyrimidin-2-amine]
17 |  | > 70 |  | > 70 | > 70 | > 70 | c1ccc2sc(-c3cnc4[nH]cc(-c5ccnc(NC6CC6)n5)c4c3)cc2c1 [1A18, 4-(5-(benzo[b]thiophen-2-yl)-1H-pyrrolo[2,3-b]pyridin-3-yl)-N-cyclopropylpyrimidin-2-amine]
18 | > 50 | > 50 | > 50 | > 50 |  |  | c1ccc(CCNc2nccc(-c3c[nH]c4ncc(-c5cc6ccccc6s5)cc34)n2)cc1 [1B18, 4-(5-(benzo[b]thiophen-2-yl)-1H-pyrrolo[2,3-b]pyridin-3-yl)-N-phenethylpyrimidin-2-amine]
19 | < 50 |  | < 50 |  |  |  | CSc1ccccc1-c1cnc2[nH]cc(-c3ccnc(NC4CCCCCC4)n3)c2c1 [1A49, N-cycloheptyl-4-(5-(2-(methylthio)phenyl)-1H-pyrrolo[2,3-b]pyridin-3-yl)pyrimidin-2-amine]
20 |  |  |  |  | > 50 | > 50 | c1ccc2c(-c3cnc4[nH]cc(-c5ccnc(NC6CCCC6)n5)c4c3)cccc2c1 [1A34, N-cyclopentyl-4-(5-(naphthalen-1-yl)-1H-pyrrolo[2,3-b]pyridin-3-yl)pyrimidin-2-amine]
21 |  |  |  |  | < 50 | < 50 | FC(F)(F)c1ccc(-c2cnc3[nH]cc(-c4ccnc(NC5CC5)n4)c3c2)cc1 [1A1, N-cyclopropyl-4-(5-(4-(trifluoromethyl)phenyl)-1H-pyrrolo[2,3-b]pyridin-3-yl)pyrimidin-2-amine]
22 |  |  |  |  | > 70 | > 70 | COc1ccc2[nH]c(-c3cnc4[nH]cc(-c5ccnc(NC6CCCC6)n5)c4c3)cc2c1 [1A37, N-cyclopentyl-4-(5-(5-methoxy-1H-indol-2-yl)-1H-pyrrolo[2,3-b]pyridin-3-yl)pyrimidin-2-amine]

— patent publication EP3383875B1, “3-PYRIMIDINYL PYRROLO [2,3-B] PYRIDINE AS ANTICANCER AGENTS AND THE PROCESS FOR THE PREPARATION THEREOF” (Council Of Scientific & Industrial Research, priority 2015, dated 2017)
